Measurements reported in patent US20150376216A1, “SUGAR-ANALOG PHOSPHORUS-CONTAINING HETEROCYCLES HAVING AN ANTI-METASTATIC ACTIVITY” (CENTRE NATIONAL DE LA RECHERCHE SCIENTIRIQUE, priority 2013, published 2015).
pIC50, pKi: −log10 of the molar value. Read-outs that look alike come from different tables or passages of the source.

Columns and labels:
MDAMB-231 = experiment: MTT antiproliferative test, MDAMB-231; assay type: cell-based; settings: Homo sapiens, MDA-MB-231, read-out: IC50, inhibition of proliferation
Protocol: (§1) The lines MDAMB-435 and A431 are seeded at a density of 3000 cells per well in 96-well plates. After 24 hours, compounds 4.2a and 5.6d resuspended in 100% DMSO are added at concentrations of 0-0.001-0.010-0.1-1-10-50 μM for a final constant amount of DMSO of 0.3%. The cultures are maintained for a further 72 hours and an MTT colorimetric test is then performed. 100 μl of a solution of MTT at 5 mg/ml in PBS are added to the culture medium, which is left to incubate for 3 hours. The culture medium is removed and the cells are lyzed by adding 100 μL of a 4 mM HCl solvent, 0.1% Nondet P-40 (NP40) in isopropanol. The yellow tetrazolium MTT salt (3-(4,5-dimethylthiazol-2-yl)-2,5-diphenyl tetrazolium bromide), when it is reduced by the mitochondrial succinate dehydrogenase of active live cells, forms a blue-violet formazan product. The medium then changes from yellow to blue-violet. The intensity of this coloration at 590 nm is proportional to the number of live cells present during the test and gives an indication of the metabolic activity of these cells.
(§2) Table 1 gives the concentration values for 50% inhibition of proliferation (IC50) for compounds 4.2a and 5.6d on lines derived from bowel cancer (CaCo2), skin cancer (A431, MDAMB-435, B16F10), breast cancer (MDAMB-431), […] (HuH7), prostate cancer (DU145) and brain cancer (SNB75, Gli4, Gli7).

B16F10 = experiment: MTT antiproliferative test, B16F10; assay type: cell-based; settings: Mus musculus, B16-F10, read-out: IC50, inhibition of proliferation
Protocol: as §1, §2

[1] = Solubility / formulation behaviour; assay type: physicochemical
Protocol: The following two formulations are particularly suited to compounds 3.48a and 4.2a and allow their in vivo administration, at concentrations of about 20-100 mg/kg, intravenously: […]

Gli7 = experiment: MTT antiproliferative test, Gli7; assay type: cell-based; settings: Homo sapiens, read-out: IC50, inhibition of proliferation
Protocol: (§3) Several cancer cell lines were used for the in vivo or in vitro biological tests: • SNB75 is a human glioblastoma line derived from a primary culture, i.e. derived from a primary malignant cancer tumor. It forms part of the panel of 59 cancer lines referenced by the NCI. Its Cosmic reference number published by the Welcome Trust Sanger Institute is 905982. This line was supplied by a person (M.D. Ph.D of the department of “Radiation Oncology”, Stanford University Medical Center). It was cultured in Ham's F-12 and DMEM (1/1) supplemented with 10% fetal bovine serum. The experiments were performed with cells in the exponential growth phase. • Gli4 (or Gli4F11) and Gli7 are cultures of cancer strain cells derived from human glioblastomas (primary cultures). These lines are CD133^+, CD15^+ which are multipotent and tumorigenic in animals. They were established by J. P. Hugnot (INM INSERM U-1051 Eq. 4), and described in Guichet, P. O. et al, Glia 2013, 61(2), 225-239; • C6 is a rat glioblastoma line. It is referenced in the ATCC under the reference CCL-107. • MDAMB-435 is a melanoma line derived from a mammary melanoma. It forms part of the panel of 59 cancer lines referenced by the NCI. It is referenced at the ATCC under the reference HTB-129. It was cultured in Ham's F-12 and DMEM (1/1) supplemented with 10% fetal bovine serum. […]

DU145 = experiment: MTT antiproliferative test, DU145; assay type: cell-based; settings: Homo sapiens, DU-145, read-out: IC50, inhibition of proliferation
Protocol: as §1, §2

HuH7 = experiment: MTT antiproliferative test, HuH7; assay type: cell-based; settings: Homo sapiens, Huh-7, read-out: IC50, inhibition of proliferation
Protocol: as §1, §2

Acute in vivo toxicity = settings: healthy mice; 50, 25, 10, 5 and 1 mg/kg; maximum dose 50 mg/kg
Protocol: Studies of the acute toxicity of compounds 3.48a and 4.2a were performed on healthy mice for a concentration range of 50, 25, 10, 5 and 1 mg/kg.

melanoma line MDAMB-435 = experiment: Boyden chamber migration test, MDAMB-435; assay type: cell-based, human; settings: for pKi: 24 hours, read-out: Inhibition constant Ki, migration
Protocol: The effects of compounds 3.48a, 4.2a and 5.6d on the migration of cancer cells (human glioblastoma line SNB75 or primary culture of human glioblastoma Gli4F1, on the one hand, and MDAMB 435 and A431 on the other hand), were determined by performing a standard migration test in a Boyden chamber (treatment of the cells for 24 hours).
For this test, the compounds were dissolved in vitro and used in culture in 0.3% of DMSO. The interior of the inserts was covered with the extracellular matrix protein studied (laminin-1, vitronectin or fibronectin). The cells pretreated at various concentrations and untreated (controls) were deposited in the inserts covered with said protein at a rate of 50 000 cells/500 μl/insert in a medium containing 0.1% of BSA (bovine serum albumin).
500 μl of medium containing 10% fetal calf serum were then placed in each well of a Companion plate so as to allow the formation of a chemotactic gradient across the porous membrane. After 24 hours of migration in the incubator at 37° C., the supernatent was removed and the inserts rinsed with PBS on each face. The cells were counted with a microscope (Zeiss Axiophot, magnification ×200). This gives a percentage of migration relative to the untreated cells.
Table 2 below gives, for compound 3.48a, the values for the inhibition constants (Ki) for the migration of a human GBM line (SNB75), of GBM stem cell lines (Gli4, Gli7) and of a breast cancer line MDAMB231, in a Boyden chamber, on various extracellular matrix protein supports. Tables 3 and 4 below give, for compounds 4.2a and 5.6d, the values of the inhibition constants (Ki) for the migration of a melanoma line (MDAMB-435) or of an epidermoid cancer line (A431), in a Boyden chamber, on various extracellular matrix protein supports. The inhibitory effect depends on the line and the stem cells used, but also on the extracellular matrix protein support used.

GLi4 = experiment: MTT antiproliferative test, Gli4; assay type: cell-based; settings: Homo sapiens, read-out: IC50, inhibition of proliferation
Protocol: as §3

A431 line = experiment: MTT antiproliferative test, A431; assay type: cell-based, human; settings: Homo sapiens, A-431; A431; 72 hours, MTT; read-out: IC50, inhibition of proliferation
Protocol: as §1, §2

CC1(C)O[C@H]2[C@@H]([C@H]3COC(C)(C)O3)O[P@](=O)(c3ccccc3)[C@@H](OC(=O)c3ccccc3)[C@H]2O1 [Compound 4.2a, (SPRSRR)-3-benzoate-4-(2,2-dimethyl-[1,3]dioxolan-4-yl)-2,2-dimethyl-2-oxo-2-phenyl-tetrahydro-2λ^5-[1,2]oxaphosphinane]
pIC50 (MDAMB-231): 5.94
pIC50 (B16F10): 4.87
Complexation in cyclodextrins [1]: non-complexible in cyclodextrins
Solubility ([1]; water, water-soluble solvents): insoluble in water, in numerous water-soluble solvents
pIC50 (Gli7): 5.57
pIC50 (DU145): < 4.00
pIC50 (HuH7): < 4.00
Mortality, acute toxicity (Acute in vivo toxicity): No mortality was observed
pIC50 (melanoma line MDAMB-435; Homo sapiens, MDA-MB-435, on fibronectin or vitronectin, read-out: Concentration for a 50% decrease in migration of the cancer cells): 7.00 to 8.00
pKi (melanoma line MDAMB-435; support Fibronectin): 7.48
pKi (melanoma line MDAMB-435; support Laminin): 7.47
pKi (melanoma line MDAMB-435; support Vitronectin): 7.21
pIC50 (GLi4): 5.17
pIC50 (A431 line): 5.36
